From US9056048B2, “Synthesis and use of cationic steroids for anti-inflammatory drug therapy” (priority 2001, dated 2015)
Converted amounts (≈) assume the structure as drawn.

Experiments:
[1] = system: mouse lung; experiment: AAV vectors co-formulated with DS or DS/D2S, intranasal instillation; type: in vivo, C57Bl/6 mice
Method: Cationic liposomes (DS/D2S) in a 1:1 mole ratio with DOPE (51 μg total lipid) were mixed with AAV (10^11 GC/dose) in equal volume at room temperature for 15 minutes prior to instillation. C57Bl/6 mice (6 to 8 weeks of age) were anesthetized by an i.p. injection of a 3:2 mixture of xylazil:ketamine. For dosing, mice were suspended from their dorsal incisors (hind quarters supported) and a dose of 10^11 GC of AAV vector was delivered as a 50 μl bolus into the nostrils.
To evaluate luciferase transgene expression, 250 μl of a 15 mg/ml luciferin solution (Caliper Life Sciences, Hopkinton, Mass.) was injected per 25 gram body mass by i.p. injection. Five minutes after luciferin injection the mice were anesthetized by an i.p. injection of a 3:2 mixture of xylazil:ketamine. Animals were imaged 15 minutes after the original luciferin injection with a high sensitivity CCD Xenogen IVIS bioluminescent imaging system (Caliper Life Sciences).
For lacZ transgene expression evaluation, lungs were harvested and inflated with a 1:1 mixture of PBS and OCT embedding compound. One lobe was then submerged in OCT, frozen in isopentane cooled with liquid nitrogen, and cryosectioned ([…]). Sections were fixed in 0.5% glutaraldehyde in PBS (Electron Microscopy Sciences, Hatfield, Pa.) for 10 minutes (4° C.) and then washed twice in PBS/1 mM MgCl2 (4° C.) and stained with X-gal substrate (5-bromo-4-chloro-3-indoyl-β-D-galactopyranoside) for 16 hours at 37° C. to reveal LacZ-positive cells. After being washed in PBS, sections were counterstained with nuclear fast red, dehydrated through a graded ethanol series and xylene, coverslipped, and imaged. The other lobe was placed in 2 ml of Lysis Buffer (Roche, Indianapolis, Ind.) and placed on ice. Directly after all samples were collected, each sample was homogenized for approximately 10 seconds. […] A mouse β-galactosidase enzyme-linked immunosorbent assay (ELISA) (Roche) was used on lung homogenates according to the manufacturer's instructions to quantitatively measure LacZ gene expression. […]

[2] = system: neutrophils in the i.p. space; experiment: Thioglycollate (TG) model of inflammation; type: in vivo, BALB/c mice
Method: Male, 6- to 8-week-old (20 g) BALB/c mice, six per group, were used. […] After 30 minutes, mice were injected i.p. with 1.5 mL of 3% TG in PBS containing 1% ethanol. At 4 hour post-TG, the i.p. fluid was collected and neutrophils were counted.

[3] = Hyaluronic acid release assay (dialysis)
Method: Hyaluronic acid sodium salt (Rooster Comb HA; Sigma) was diluted in PBS at 1 mg/ml to mimic an anionic glycosaminoglycan at a nominal interstitial concentration.

[4] = system: GRE promoter construct (pGRE-SEAP); experiment: Induction of transcription from GRE (GRE-SEAP promoter construct) in 293 cells; type: cell-based
Method: 293 cells were lipofected with GRE-SEAP plasmid in triplicate using 1 μg plasmid and 6 μg Lipofectamine per well in 24-well plates. […] After 24 hr of induction, 50 μl aliquots of growth media were analyzed for alkaline phosphatase activity using the SEAP fluorogenic assay following the manufacturer's instructions.

[5] = physchem; details: water
[6] = system: osteoblasts; experiment: In vitro bone culture inflammatory model, qRT-PCR transcripts; type: cell-based, murine; details: for reduction in IL-6 transcripts over control: qRT-PCR normalized to GAPDH; for OPG/RANKL ratio: transcripts, qRT-PCR
Method: For co-cultures with osteoblasts, bone marrow cells (1×10^5 cells/well in 96-well plates) were co-cultured with calvarial osteoblasts (1×10^4 cells/well) in α-minimal essential medium containing 10% fetal bovine serum and supplemented with 20 nM 1α, 25(OH)2D3 and 1 μM prostaglandin E2 (PGE2) for 9 days. […] Co-cultures treated with Vitamin D3 (VitD3) were treated at 20 nM.
For transcript analysis, total RNA was isolated using the Absolutely RNA microprep kit (Stratagene, La Jolla, Calif.). RNA was reverse transcribed using Superscript III reverse transcriptase and oligo(dT) (Invitrogen, Carlsbad, Calif.), and complementary DNA was purified using Qiagen's PCR purification kit (Valencia, Calif.). Complementary DNA from untreated samples was used for optimizing PCR conditions, with primers targeting the gene of interest. For the gene RANKL, the forward primer was 5′-[sequence]-3′ and the reverse primer was 5′-[sequence]-3′, for the OPG gene the forward primer was 5′-[sequence]-3′ and the reverse primer was 5′-[sequence]-3′, for the IL-6 gene the forward primer was 5′-[sequence]-3′ and the reverse primer was 5′-[sequence]-3′. In order to normalize the expression levels, GAPDH was used as a housekeeping gene with forward primer 5′-[sequence]-3′ and reverse primer 5′-[sequence]-3′. A standard curve was created using the untreated controls and the optimized PCR conditions for each set of primers on a Roche LightCycler 480 (Indianapolis, Ind.). Quantitative real-time PCR was performed using the LightCycler FastStart DNA MasterPLUS SYBR Green I kit with melting curve analysis provided by the LightCycler software.
TNF-α is utilized as an inflammatory cytokine to initiate the NF-κB pathway and subsequent effect on RANKL.

[7] = system: bovine aortic endothelial cells; experiment: Lipofection of BAEC with EGFP plasmid; type: cell-based; details: alone, unconjugated
Method: Bovine aortic endothelial cells (BAEC, passage 4-13) were passaged at a 1:3 split to 24-well culture plates, and then grown to dense confluence before lipofection. Growth medium was Dulbecco's modified Eagle's medium (DMEM) containing 10% heat inactivated charcoal-filtered (to remove steroid hormones) fetal calf serum (Hyclone), 0.30 mg/ml glutamine, 150 U/ml penicillin, and 0.15 mg/ml streptomycin (Gibco). 293 cells were grown under identical conditions. The plasmids pEGFP-N3 and pGRE-SEAP (Clontech) were used for expression of EGFP or secreted alkaline phosphatase under the regulation of CMV or GRE promoters, respectively. […] In other experiments, Lipofectamine 2000 (Invitrogen), in a 1:1 (wt) ratio with nucleic acid, was used according to the manufacturer's instructions.
For fluorescence microscopy and flow cytometry, pEGFP-N3 plasmid (Clontech, Palo Alto, Calif.) was used to generate GFP as the fluorescent reporter transgene protein. Cells were transfected in 6-well plates with each condition in duplicate. One day after GFP transfection, cells were imaged and then harvested in 500 ul PBS and kept on ice until analysis. A BD Biosciences (Franklin Lakes, N.J.) FACSCalibur flow cytometer was used to obtain fluorescence data with 50,000 counts recorded per condition.
EGFP expression was calibrated using 0 to 200 ng recombinant GFP (Clontech) in 750 μl PBS. […]

[8] = system: mouse lungs; experiment: AdV vector formulated with lipid, intranasal delivery to mouse lungs; type: in vivo, C57Bl/6 mice; parameters: key: 0 (normal, no inflammation); mild (+) monocytic infiltrate and congestion; +++ (extensive inflammation); details: day 7
Source text: E1/E3-deleted replication-deficient, recombinant adenovirus vectors (2-4.5×10^12 GC/ml stock) expressing either a LacZ or a AlkP reporter were created as previously described in Gao et al. (1996, J. Virol. 70:8934-8943) by homologous recombination between the shuttle plasmid that carries the transgene and the 5′ end of the adenovirus genome with E1 deleted and 3′ end of H5.sub360 in which the E3 gene was inactivated by a small deletion. The recombinant viruses were propagated in 293 cells and purified by the standard CsCl gradient sedimentation method. The replication-deficient AAV2/5CBntLacZ contains the LacZ gene with a nucleus localization sequence at its N-terminus, under the transcriptional control of the chicken h-actin promoter. The AAV (2/5) vector (˜2×10^12 GC/ml stock) was produced by transcapsidation in 293 cells using a triple transfection method and purified by CsCl gradient sedimentation as described in Gao et al. (2002, Proc. Natl. Acad. Sci. USA 99:11854-11859).
C57Bl/6 mice (6 to 8 weeks of age) were anesthetized by an i.p. injection of a 3:2 mixture of xylazil (20 mg/ml):ketamine (100 mg/ml). For dosing, mice were suspended from their dorsal incisors (hind quarters supported) and a dose of 10^11 GC of AdV or AAV vector was delivered as a 50-μl bolus into the nostrils using a gel-loading tip (Finnpippette). […]

CC1C[C@H]2[C@@H]3CCC4=CC(=O)C=C[C@]4(C)[C@@]3(F)C(O)C[C@]2(C)[C@@]1(O)C(=O)CSCCCC(=N)NCCCNCCCCNCCCN.O=C(O)C(F)(F)F (stereo partly drawn) [DS, N-[3-({4-[(3-aminopropyl)amino]butyl}amino)propyl]-4-[(9-fluoro-11,17-dihydroxy-16-methyl-3,20-dioxopregna-1,4-dien-21-yl)sulfanyl]butanimidamide-TFA Salt]
lacZ transgene level in lung homogenate compared to control ([1]; AAV2/6.2, ELISA, day 28): higher average transgene levels | luciferase luminescence in the lung ([1]; AAV2/9, day 28): minimal luminescence in the lung | LacZ gene expression versus AAV2/9-LacZ alone (readministered control) ([1]; day 56, formulation at day 0, re-administration day 28): 2 fold | reduction in neutrophil immigration versus vehicle ([2]; 5.85 mg/kg i.p. 30 minutes before TG, 4 hour post-TG): 60% | lethality ([2]; tested dose 5.85 mg/kg i.p.): not lethal | fraction eluted from HA ([3]; 24 hour period): only a small fraction | half-life for dissociation from HA ([3]; in PBS): 56 h | time remaining tightly bound to HA ([3]; physiological salt buffer): over 24 hours | SEAP transcription from GRE promoter ([4]; 100 nM, 293 cells): statistically significant levels of SEAP transcription | EC50 ([4]; Homo sapiens, HEK293, read-out: EC50 of transcription from GRE promoter construct (pGRE-SEAP)): 10 to 100 nM | solubility [5]: > 100000 µg/mL | reduction in IL-6 transcripts over control [6]: 17% | OPG/RANKL ratio [6]: 1.67

TNF-α
OPG/RANKL ratio [6]: 0.12

NCCCNCCCCNCCCN [Spermine, spermine]
gene transfer activity [7]: no detectable gene transfer activity

C[C@@H]1C[C@H]2[C@@H]3CCC4=CC(=O)C=C[C@]4(C)[C@@]3(F)[C@@H](O)C[C@]2(C)[C@@]1(O)C(=O)CO [dexamethasone, reference compound]
lung inflammation score by blinded pathologist [8]: 0 | solubility [5]: 100 µg/mL (≈ 255 µM) | reduction in IL-6 transcripts over control [6]: 72%
